Measurements published in ChEMBL document CHEMBL5523769, “Discovery of Novel Nonpeptidic and Noncovalent Small Molecule 3CLpro Inhibitors as anti-SARS-CoV-2 Drug Candidate” (J Med Chem, 2024).
Calls of active or inactive are those of the source. The calls are words filed in the database; no cut-off is given here.

Key:
[1] = test system: SARS-CoV-2; test: microbe, parasite or virus in culture; conditions: Severe acute respiratory syndrome coronavirus 2, Delta, Vero C1008
[2] = test system: SARS-CoV-2; test: Antiviral activity against SARS-CoV-2 omicron BA.5 variant infected in K18-hACE2 transgenic mouse model assessed as increase in body weight at 100 to 200 mg/kg, po pre-infected with virus for 2 hrs followed by twice daily compound administration and measured on day 4; type: functional, organism-based; conditions: Severe acute respiratory syndrome coronavirus 2, dose 100-200 mg/kg, time 4.0 day
[3] = test system: SARS-CoV-2; test: Antiviral activity against SARS-CoV-2 omicron BA.5 variant infected in K18-hACE2 transgenic mouse model assessed as log reduction in viral copies in lungs at 200 mg/kg, po pre-infected with virus for 2 hrs followed by twice daily compound administration and measured on day 2; type: functional, Severe acute respiratory syndrome coronavirus 2; conditions: time 2 day
[4] = test system: SARS-CoV-2; test: Antiviral activity against SARS-CoV-2 omicron BA.5 variant infected in K18-hACE2 transgenic mouse model assessed as log reduction in viral copies in lungs at 200 mg/kg, po pre-infected with virus for 2 hrs followed by twice daily compound administration and measured on day 4; type: functional, Severe acute respiratory syndrome coronavirus 2; conditions: time 4 day
[5] = test system: SARS-CoV-2; test: Antiviral activity against SARS-CoV-2 omicron BA.5 variant infected in K18-hACE2 transgenic mouse model assessed as inhibition of viral replication at 100 mg/kg, po pre-infected with virus for 2 hrs followed by twice daily compound administration and measured on day 2 to 4; type: functional, organism-based; conditions: Severe acute respiratory syndrome coronavirus 2, time 2-4 day
[6] = test system: SARS-CoV-2; test: Antiviral activity against SARS-CoV-2 omicron BA.5 variant infected in K18-hACE2 transgenic mouse model assessed as increase in body weight at 200 mg/kg, po pre-infected with virus for 2 hrs followed by twice daily compound administration and measured on day 4 in presence of ritonavir; type: functional, organism-based; conditions: Severe acute respiratory syndrome coronavirus 2, time 4.0 day
[7] = test system: SARS-CoV-2; test: microbe, parasite or virus in culture; conditions: Severe acute respiratory syndrome coronavirus 2, Delta, Vero C1008; remark: listed apart in the source
[8] = test system: SARS-CoV-2; test: Antiviral activity against SARS-CoV-2 omicron BA.5 variant infected in K18-hACE2 transgenic mouse model assessed as increase in body weight at 50 mg/kg, po pre-infected with virus for 2 hrs followed by twice daily compound administration and measured on day 4 in presence of nirmatrelvir; type: functional, organism-based; conditions: Severe acute respiratory syndrome coronavirus 2, time 4.0 day

Molecule `CNC(=O)c1cc(Br)cc([N+](=O)[O-])c1N[C@@H]1CCCC[C@@H]1NC(=O)c1cc(=O)[nH]c2ccc(F)cc12` has an EC50 [1] of 2.44 µM.
In the case of `CNC(=O)c1cc(C2CC2)cc([N+](=O)[O-])c1N[C@@H]1CCCC[C@@H]1NC(=O)c1cc(=O)[nH]c2ccccc12`, the EC50 [1] is reported as 2.69 µM.
`CN1CCN(C(=O)c2cc(Br)cc([N+](=O)[O-])c2N[C@@H]2CCCC[C@@H]2NC(=O)c2cc(=O)[nH]c3c(F)cccc23)CC1` was tested, and the Activity [2] was “Active”, the “log(activity)” value [3] was 1.5 and the “log(activity)” value [4] was 1. For the same molecule, the Activity [5] was “Active” and the EC50 [1] was 0.272 µM.
In the case of `O=C(N[C@H]1CCCC[C@H]1Nc1c(C(=O)N2CCOCC2)cc(Br)cc1[N+](=O)[O-])c1cc(=O)[nH]c2ccccc12`, the EC50 [1] is reported as 3.36 µM.
Molecule `O=C(NCCC(F)(F)F)C1CN(c2ccc(Cl)c(Cl)c2)CCN1C(=O)c1cc(=O)[nH]c2ccccc12` (centres undefined) has an EC50 [1] of 17.7 µM.
In the case of `CC(C)(C)[C@H](NC(=O)C(F)(F)F)C(=O)N1C[C@H]2[C@@H]([C@H]1C(=O)N[C@H](C#N)C[C@@H]1CCNC1=O)C2(C)C`, the Activity [6] is reported as “Active”.
Molecule `O=C(NCCCC(F)(F)F)C1CN(c2ccc(Cl)c(Cl)c2)CCN1C(=O)c1cc(=O)[nH]c2ccccc12` (centres undefined) has an EC50 [1] of 3.95 µM.
`CNC(=O)c1cc(Br)cc([N+](=O)[O-])c1N[C@@H]1CCCC[C@@H]1NC(=O)c1cc(=O)[nH]c2ccccc12` showed an EC50 [1] of 0.849 µM.
For `O=C(c1cc(=O)[nH]c2ccccc12)N1CCN(c2ccc(Cl)c(Cl)c2)CC1CN1CCOCC1` (centres undefined), the EC50 [7] was 7.24 µM and the EC50 [1] was 7.24 µM.
`COc1ccc2[nH]c(=O)cc(C(=O)N[C@H]3CCCC[C@H]3Nc3c(C(=O)N4CCOCC4)cc(C4CC4)cc3[N+](=O)[O-])c2c1` was tested, and the EC50 [1] was 7.81 µM.
For `CC(C)c1nc(CN(C)C(=O)N[C@H](C(=O)N[C@@H](Cc2ccccc2)C[C@H](O)[C@H](Cc2ccccc2)NC(=O)OCc2cncs2)C(C)C)cs1`, the Activity [8] was “Active”.
Work on `O=C(N[C@H]1CCCC[C@H]1Nc1c(C(=O)N2CCOCC2)cc(C2CC2)cc1[N+](=O)[O-])c1cc(=O)[nH]c2ccccc12` yielded an EC50 [1] of 4.46 µM.
For `O=C(N[C@H]1CCCC[C@H]1Nc1c(C(=O)N2CCOCC2)cc(Br)cc1[N+](=O)[O-])c1cc(=O)[nH]c2c(F)cccc12`, the EC50 [1] was 0.367 µM.
`CNC(=O)c1cc(Br)cc([N+](=O)[O-])c1N[C@@H]1CCCC[C@@H]1NC(=O)c1cc(=O)[nH]c2c(F)cccc12` was tested, and the EC50 [1] was 0.346 µM.
